Drawing on PubChem BioAssay (NCI), this text covers GI50 and TGI for ten molecules.

Molecules are shown by their SMILES. Where “and” joins values, the source holds several entries; their conditions need not be identical. Identical values can stand only once.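 Step 1: Grow cells in 96-well plates. Step 2: Expose to compound for 48 hours at 5 concentrations. Step 3: Interpolate endpoints linearly; if unreached, use highest concentration. Here, GI50 denotes the concentration required for 50% inhibition of growth. TGI denotes the concentration required for complete inhibition of growth.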

Among the test systems are OVCAR-8 ovarian; MCF7 breast; HT29 colon; MDA-MB-231 breast; SF-539 CNS; MALME-3M melanoma; SNB-75 CNS; ACHN renal; HS 578T breast; EKVX NSCLC.
Common to all, as to assay: NCI tumour cell line growth inhibition, 48 h

On to `C=C(C)[C@@H]1CC[C@]2(C(=O)NCCCN)CC[C@]3(C)[C@H](CC[C@@H]4[C@@]5(C)CC[C@H](O)C(C)(C)[C@@H]5CC[C@]43C)[C@@H]12`, for which the GI50 is 27.7 µM with OVCAR-8 ovarian; 10.7 µM in the assay with MCF7 breast; 6.95 µM in the assay on HT29 colon; 21.1 µM in the assay on MDA-MB-231 breast; 17.9 µM in the assay on SF-539 CNS; 23.3 µM in the assay on MALME-3M melanoma. For the same molecule, the GI50 was 32.1 µM with SNB-75 CNS, 21.7 µM in the assay on ACHN renal, 40.5 µM in the assay with HS 578T breast and 23.3 µM with EKVX NSCLC. The TGI was determined as 87.7 µM in the assay on OVCAR-8 ovarian; 95.8 µM with MCF7 breast; 38.4 µM in the assay with HT29 colon; 76.2 µM with MDA-MB-231 breast; 52 µM in the assay on SF-539 CNS; 94.1 µM in the assay with MALME-3M melanoma. For the same molecule, the TGI is over 100 µM with SNB-75 CNS, 59.9 µM in the assay with ACHN renal, over 100 µM in the assay with HS 578T breast and 76.1 µM with EKVX NSCLC.

Turning to `C=C(C)[C@@H]1CC=C(CO)CC1`, the GI50 in the assay on OVCAR-8 ovarian, in the assay with HT29 colon, in the assay with SF-539 CNS, with MALME-3M melanoma, with SNB-75 CNS and in the assay on ACHN renal was over 10 µM throughout. In addition, the GI50 in the assay on EKVX NSCLC was over 10 µM. In addition, the TGI is > 10 µM and 857 µM in the assay on OVCAR-8 ovarian; over 10 µM in the assay with MCF7 breast; > 10 µM and 702 µM in the assay with HT29 colon; over 10 µM in the assay on MDA-MB-231 breast; > 10 µM and 1120 µM with SF-539 CNS; > 10 µM and 1080 µM in the assay with MALME-3M melanoma. Besides, the TGI is > 10 µM and 374 µM in the assay on SNB-75 CNS; > 10 µM and 657 µM with ACHN renal; over 10 µM in the assay on HS 578T breast; > 10 µM and 1250 µM with EKVX NSCLC.

Turning to `O=C(CCl)c1ccc([N+](=O)[O-])o1`, the GI50 is 3.33 µM in the assay on OVCAR-8 ovarian; 1.87 µM in the assay with MCF7 breast; 2.76 µM with HT29 colon; 4.9 µM in the assay with MDA-MB-231 breast; 2.28 µM in the assay on SF-539 CNS; 1.98 µM in the assay with MALME-3M melanoma. For the same molecule, the GI50 was 3.06 µM in the assay on SNB-75 CNS, 1.68 µM in the assay on ACHN renal, 2.72 µM in the assay on HS 578T breast and 10.7 µM with EKVX NSCLC. The TGI with OVCAR-8 ovarian turned out to be 18.8 µM; in the assay on MCF7 breast, 5.82 µM; in the assay with HT29 colon, 8.99 µM; with MDA-MB-231 breast, 13.7 µM; with SF-539 CNS, 5.03 µM; with MALME-3M melanoma, 4.37 µM. Besides, the TGI with SNB-75 CNS amounted to 9.16 µM; in the assay on ACHN renal, 3.26 µM; in the assay on HS 578T breast, 8.66 µM; in the assay on EKVX NSCLC it was 32.6 µM.

Turning to `N#CSc1ncnc2nc[nH]c12`, the GI50 in the assay on OVCAR-8 ovarian is 5.72 µM; in the assay with MCF7 breast, 2.35 µM; in the assay with HT29 colon, 9.69 µM; with MDA-MB-231 breast, 11.2 µM; in the assay on SF-539 CNS, 4.14 µM; in the assay with MALME-3M melanoma it was 10.6 µM. Also, the GI50 in the assay with SNB-75 CNS is 7.19 µM; in the assay with ACHN renal it was 9.1 µM; in the assay with HS 578T breast, 4.79 µM; with EKVX NSCLC, 41.8 µM. For the same molecule, the TGI is over 100 µM with OVCAR-8 ovarian; over 79.4 µM in the assay with MCF7 breast; over 100 µM in the assay on HT29 colon; over 100 µM with MDA-MB-231 breast; over 65.9 µM with SF-539 CNS; over 100 µM with MALME-3M melanoma. In addition, the TGI in the assay with SNB-75 CNS is over 100 µM; in the assay on ACHN renal it was over 100 µM; in the assay with HS 578T breast, over 92.6 µM; in the assay with EKVX NSCLC, over 100 µM.

Turning to `CN(C)CCNC(=O)c1cccn2c(=O)c3cc4ccccc4cc3nc12`, the GI50 in the assay on OVCAR-8 ovarian was 0.0577 µM; in the assay on MCF7 breast, 0.232 µM; with HT29 colon it was 0.0691 µM; with MDA-MB-231 breast, 0.316 µM; with SF-539 CNS, 0.161 µM; in the assay on MALME-3M melanoma, 0.116 µM. The GI50 with SNB-75 CNS was 0.28 µM; in the assay with ACHN renal it was 0.0422 µM; in the assay on HS 578T breast, 0.153 µM; in the assay on EKVX NSCLC, 0.353 µM. The TGI with OVCAR-8 ovarian is over 69.6 µM; in the assay on MCF7 breast, over 100 µM; in the assay on MDA-MB-231 breast it was 8.84 µM; with SF-539 CNS, 1.6 µM; in the assay with MALME-3M melanoma it was 0.617 µM; in the assay with SNB-75 CNS, 1.77 µM. Moreover, the TGI with ACHN renal is over 36.4 µM; in the assay on HS 578T breast it was 1.76 µM.

Consider `CC(C)(O)c1ccc(N2CCN(c3nnc(Cc4ccccc4)c4ccccc34)CC2)nc1`, for which the GI50 is 8.01 µM with OVCAR-8 ovarian; 7.05 µM in the assay on MCF7 breast; 12 µM with HT29 colon; 5.95 µM in the assay with MDA-MB-231 breast; 12.7 µM in the assay on SF-539 CNS; 5.28 µM with MALME-3M melanoma. Further, the GI50 with SNB-75 CNS was 9.74 µM; in the assay on ACHN renal it was 11.3 µM; in the assay with HS 578T breast, 15.3 µM; in the assay with EKVX NSCLC, 4 µM. Besides, the TGI was determined as 42.5 µM in the assay with OVCAR-8 ovarian; 21.7 µM in the assay with MCF7 breast; 37.7 µM in the assay with HT29 colon; 32.2 µM in the assay on MDA-MB-231 breast; 29.2 µM in the assay with SF-539 CNS; 17.9 µM in the assay with MALME-3M melanoma. The TGI with SNB-75 CNS came out at 24.5 µM; in the assay on ACHN renal, 47.7 µM; in the assay with HS 578T breast, 41.4 µM; in the assay on EKVX NSCLC, 19.8 µM.

For the molecule `CCN=C1C=CC(=C(c2ccc(N(C)C)cc2)c2ccc(N(C)C)cc2)c2ccccc21`, the GI50 was 0.0816 µM in the assay on OVCAR-8 ovarian; 0.141 µM in the assay with MCF7 breast; 0.0326 µM in the assay on HT29 colon; 0.171 µM in the assay on MDA-MB-231 breast; 0.124 µM with SF-539 CNS; 0.026 µM in the assay with MALME-3M melanoma. Further, the GI50 with SNB-75 CNS was 0.0833 µM; with ACHN renal it was 0.241 µM; in the assay with HS 578T breast, 0.149 µM; in the assay with EKVX NSCLC, 0.0445 µM. In addition, the TGI with OVCAR-8 ovarian turned out to be 1.7 µM; in the assay on MCF7 breast it was 1.09 µM; in the assay on HT29 colon it was 0.207 µM; with MDA-MB-231 breast it was 1.3 µM; in the assay on SF-539 CNS, 0.53 µM; in the assay with MALME-3M melanoma, 0.0855 µM. In addition, the TGI with SNB-75 CNS came out at 0.332 µM; in the assay on ACHN renal it was 1.1 µM; in the assay on HS 578T breast, 1.02 µM; with EKVX NSCLC it was 0.488 µM.

Turning to `CCOC(=O)Cc1c[nH]c(=S)[nH]c1=O`, the GI50 with OVCAR-8 ovarian, in the assay on MCF7 breast, in the assay with HT29 colon, with MDA-MB-231 breast, with SF-539 CNS and in the assay on MALME-3M melanoma was over 100 µM in each case. Further, the GI50 in the assay with SNB-75 CNS, in the assay with ACHN renal, with HS 578T breast and in the assay on EKVX NSCLC was over 100 µM throughout. The TGI in the assay on OVCAR-8 ovarian, in the assay with MCF7 breast, with HT29 colon, in the assay with MDA-MB-231 breast, with SF-539 CNS and in the assay on MALME-3M melanoma was over 100 µM throughout. Besides, the TGI in the assay with SNB-75 CNS, with ACHN renal, in the assay on HS 578T breast and in the assay on EKVX NSCLC was over 100 µM throughout.

In the case of `CC[C@H](Nc1nc(N)nc(C)c1C#N)c1nc2cccc(CN(C)c3ncc(C(=O)NO)cn3)c2c(=O)n1-c1ccccc1`, the GI50 was 0.704 µM in the assay on OVCAR-8 ovarian; 0.915 µM in the assay with MCF7 breast; 0.8 µM in the assay on HT29 colon; 0.779 µM with MDA-MB-231 breast; 0.591 µM in the assay on SF-539 CNS; 0.129 µM with MALME-3M melanoma. In addition, the GI50 in the assay with SNB-75 CNS was 0.244 µM; in the assay on ACHN renal it was 1.26 µM; with HS 578T breast it was 0.474 µM; in the assay on EKVX NSCLC, 1.69 µM. Also, the TGI in the assay with OVCAR-8 ovarian was 10.3 µM; with MCF7 breast, over 24.5 µM; in the assay with HT29 colon it was over 17.6 µM; in the assay with MDA-MB-231 breast, 3.08 µM; in the assay with SF-539 CNS it was 6.12 µM; in the assay with MALME-3M melanoma it was 2.47 µM. Besides, the TGI in the assay on SNB-75 CNS is 1.82 µM; in the assay with ACHN renal, 3.79 µM; in the assay with HS 578T breast it was over 11.1 µM; in the assay with EKVX NSCLC, 16.9 µM.

Take `CCN(CC)CCOc1ccc(C(=C(C)c2ccc(Cl)cc2)c2ccc(OCCN(CC)CC)cc2)cc1`: the GI50 in the assay on OVCAR-8 ovarian is 0.731 µM; in the assay with MCF7 breast it was 0.445 µM; with HT29 colon it was 0.578 µM; in the assay with MDA-MB-231 breast it was 0.581 µM; in the assay on SF-539 CNS, 0.59 µM; with MALME-3M melanoma, 0.563 µM. Further, the GI50 was 0.0499 µM with SNB-75 CNS, 0.614 µM in the assay on ACHN renal, 0.71 µM with HS 578T breast and 0.989 µM in the assay with EKVX NSCLC. Besides, the TGI is 1.77 µM with OVCAR-8 ovarian; 0.966 µM in the assay with MCF7 breast; 1.27 µM with HT29 colon; 1.12 µM in the assay on MDA-MB-231 breast; 1.1 µM with SF-539 CNS; 1.09 µM in the assay with MALME-3M melanoma. Further, the TGI in the assay on SNB-75 CNS was 1.66 µM; with ACHN renal it was 1.15 µM; with HS 578T breast, 1.85 µM; in the assay on EKVX NSCLC, 3.5 µM.
